Assays:
[1] = excess molar enthalpy (molar enthalpy of mixing); xn = mol fraction of the nth substance listed; settings: 298.15 K, 101 kPa, Liquid
[2] = 298.15 K; 101.33 kPa; Liquid

C[C@H](O)c1ccccc1 [(S)-(-)-1-phenylethanol] + C[C@@H](O)c1ccccc1
[1]
Settings | excess molar enthalpy [kcal/mol]
x1 = 0.07558 | 0.000755
x1 = 0.09137 | 0.000905
x1 = 0.1405 | 0.00127
x1 = 0.1675 | 0.0015
x1 = 0.197 | 0.00168
x1 = 0.2318 | 0.00184
x1 = 0.2464 | 0.00196
x1 = 0.2869 | 0.00213
x1 = 0.2902 | 0.00216
x1 = 0.3291 | 0.0023
x1 = 0.3346 | 0.0023
x1 = 0.364 | 0.00241
x1 = 0.3763 | 0.0024
x1 = 0.3954 | 0.00247
x1 = 0.4131 | 0.00246
x1 = 0.4239 | 0.00251
x1 = 0.4458 | 0.0025
x1 = 0.4498 | 0.00253
x1 = 0.4751 | 0.00252
x1 = 0.4753 | 0.00249
x1 = 0.497 | 0.00252
x1 = 0.5014 | 0.00252
x1 = 0.5208 | 0.00254
x1 = 0.5252 | 0.00251
x1 = 0.5469 | 0.0025
x1 = 0.547 | 0.00253
x1 = 0.5668 | 0.00252
x1 = 0.576 | 0.00251
x1 = 0.5993 | 0.00251
x1 = 0.6083 | 0.00247
x1 = 0.6357 | 0.00241
x1 = 0.6443 | 0.00238
x1 = 0.6768 | 0.00229
x1 = 0.6849 | 0.00227
x1 = 0.7235 | 0.00214
x1 = 0.731 | 0.00209
x1 = 0.7773 | 0.0019
x1 = 0.7837 | 0.00183
x1 = 0.8396 | 0.00144
x1 = 0.8446 | 0.00149
x1 = 0.9128 | 0.000857
x1 = 0.9158 | 0.000837

C[C@H](N)c1ccccc1 [(S)-(-)-αmethylbenzylamine]
Settings | mass density [kg/m3]
[2] | 965.49

C[C@H](N)c1ccccc1 [(S)-(-)-αmethylbenzylamine] + C[C@@H](N)c1ccccc1
[1]
Settings | excess molar enthalpy [kcal/mol]
x1 = 0.0173 | 0.000147
x1 = 0.03401 | 0.000288
x1 = 0.05015 | 0.000417
x1 = 0.06577 | 0.000537
x1 = 0.08089 | 0.000641
x1 = 0.09552 | 0.000748
x1 = 0.1097 | 0.000848
x1 = 0.1234 | 0.000939
x1 = 0.1368 | 0.00102
x1 = 0.1408 | 0.00107
x1 = 0.1497 | 0.0011
x1 = 0.1622 | 0.00119
x1 = 0.1744 | 0.00126
x1 = 0.1862 | 0.00133
x1 = 0.2469 | 0.00163
x1 = 0.3297 | 0.00195
x1 = 0.384 | 0.00208
x1 = 0.4161 | 0.00213
x1 = 0.4539 | 0.00216
x1 = 0.555 | 0.00216
x1 = 0.6244 | 0.00208
x1 = 0.7138 | 0.00181
x1 = 0.8027 | 0.00132
x1 = 0.815 | 0.00125
x1 = 0.841 | 0.0011
x1 = 0.8546 | 0.00102
x1 = 0.8686 | 0.000935
x1 = 0.8831 | 0.00084
x1 = 0.8981 | 0.00074
x1 = 0.9136 | 0.000631
x1 = 0.9297 | 0.000527
x1 = 0.9463 | 0.000409
x1 = 0.9636 | 0.000273
x1 = 0.9814 | 0.000116

C[C@H](NCc1ccccc1)c1ccccc1 [(S)-N-benzyl-1-phenylethylamine]
Settings | mass density [kg/m3]
[2] | 1007.9

C[C@H](NCc1ccccc1)c1ccccc1 [(S)-N-benzyl-1-phenylethylamine] + C[C@@H](NCc1ccccc1)c1ccccc1
[1]
Settings | excess molar enthalpy [kcal/mol]
x1 = 0.05697 | -0.000214
x1 = 0.09481 | -0.00033
x1 = 0.1905 | -0.000609
x1 = 0.2961 | -0.000821
x1 = 0.4009 | -0.000962
x1 = 0.5331 | -0.00102
x1 = 0.5712 | -0.00101
x1 = 0.6151 | -0.000962
x1 = 0.7271 | -0.000831
x1 = 0.7998 | -0.000686
x1 = 0.8805 | -0.000439
x1 = 0.9576 | -0.000186

CCCC(=O)OC[C@H]1CO1 [R(-)-2,3-epoxypropyl butanoate]
Settings | mass density [kg/m3]
[2] | 1036.3

CCCC(=O)OC[C@@H]1CO1 [S-(-)-glycidyl butyrate]
Settings | mass density [kg/m3]
[2] | 1029.7

Reference: the NIST ThermoML archive (doi:10.1016/j.jct.2005.10.019)
